Data as given in patent publication US20040253675A1, “Method for GPCR assay with a coexpressed Galpha protein” (Hitachi, Ltd., priority 2003, published 2004).

Experiments:
[1] = tested on: M4 receptor; test: Ca-dependent Cl response in Xenopus oocytes coexpressing M4 receptor and chimeric Gqα subunit (G11α/G14α); assay type: cell-based; details: Xenopus oocyte, chimeric Gqα subunit coexpressed, clamped at −60 mV by TEVC, FIG. 5
Procedure: They were subjected to coexpression in Xenopus oocytes. […] Res. Commun. 201 (2), 894-901 (1994).
Thereafter, oocytes were cultured.

[2] = biological target: H2 receptor (Homo sapiens, UniProt P25021); details: Xenopus oocyte
Sequence of H2 receptor (P25021 whole entry): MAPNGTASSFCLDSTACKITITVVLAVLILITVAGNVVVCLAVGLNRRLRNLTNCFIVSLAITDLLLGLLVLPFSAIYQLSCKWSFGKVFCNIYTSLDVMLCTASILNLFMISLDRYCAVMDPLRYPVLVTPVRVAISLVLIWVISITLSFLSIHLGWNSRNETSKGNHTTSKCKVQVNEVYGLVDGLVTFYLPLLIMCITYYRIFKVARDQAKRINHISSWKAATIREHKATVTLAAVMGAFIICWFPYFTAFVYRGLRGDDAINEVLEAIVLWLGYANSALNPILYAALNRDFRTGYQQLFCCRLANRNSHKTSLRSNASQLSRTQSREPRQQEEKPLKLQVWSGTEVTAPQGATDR
Excerpt: Oocytes removed from a female Xenopus were selected by a conventional method. RNA encoding the H1 and H2 receptors, M1 to M5 receptors, δ opioid receptors, or mGlu1 receptors that were synthesized in vitro were transfected into the selected oocyte together with RNA encoding a chimeric Gqα subunit constituted by a portion of the G11 protein α subunit and a portion of the G14 protein α subunit that was similarly synthesized. As a control, an oocyte to which RNA of the chimeric Gqα subunit was not to be transfected was prepared. Thereafter, oocytes were cultured.
The cultured oocytes were clamped at −60 mV by TEVC. […] The occurrence of Ca-dependent Cl response was then assayed.
RNA encoding the H2 receptor was transfected in the oocytes. Simultaneously or 24 hours thereafter, RNA encoding the chimeric Gqα subunit constituted by a portion of the G11α subunit and a portion of the G14α subunit was transfected therein. Thereafter, the ligand responses of these oocytes were assayed by the method described in Example 1.

| SMILES | response generated by ligand stimulus at various concentration levels [1] | response generated by ligand, chimeric Gqα RNA transfected 24 hours after GPCR RNA compared with simultaneous transfection ([2]; 10 μM ligand, FIG. 6) | response generated by ligand stimulus at various concentration levels ([2]; chimeric Gqα subunit coexpressed, clamped at −60 mV by TEVC, FIG. 5) |
| --- | --- | --- | --- |
| CC(=O)OCC[N+](C)(C)C [Ach] | correlations between ligand concentration and size of response |  |  |
| NCCc1c[nH]cn1 [histamine] |  | greatly increased | correlations between ligand concentration and size of response |
